According to patent US12345718B2, “Method for determining the haemoglobin content of an erythroid cell” (UNIVERSITÉ PARIS EST CRÉTEIL VAL DE MARNE, priority 2016, dated 2025):
Values joined by “and” are separate entries in the source; they are usually repeats but may differ in a detail not shown here. Equal values may be shown once.

Key:
HbF = HbF content of each red blood cell by flow cytometry (HbF distribution) during treatment with hydroxyurea
[1] = Complete blood count / biological data of SS patients during treatment with hydroxyurea; assay type: in vivo, human
[2] = SS patients, M6 of hydroxyurea, median

## NC(=O)NO [hydroxyurea]
HbF; patient 11, M3-M4
  % RBCs with HbF [6; 8[ pg: 4.32 % RBCs
  % RBCs with HbF [8; 10[ pg: 2.04 % RBCs
  % RBCs with HbF [10; 15[ pg: 0.72 % RBCs
  % RBCs with HbF [15; 20[ pg: 2.46 % RBCs
  % RBCs with HbF ≥20 pg: 0.59 % RBCs
HbF; patient 11, at 6 months of treatment
  RBCs >6 pg HbF: 57%
HbF; patient 11, at M6
  decrease of red blood cells with HbF content of less than 2 pg: approximately 73%
HbF; patient 11, ≥M6
  % RBCs with HbF [0; 2[ pg: 12.93 % RBCs
  % RBCs with HbF [2; 4[ pg: 17.62 % RBCs
  % RBCs with HbF [4; 6[ pg: 11.85 % RBCs
  % RBCs with HbF [6; 8[ pg: 8.05 % RBCs
  % RBCs with HbF [8; 10[ pg: 6.08 % RBCs
  % RBCs with HbF [10; 15[ pg: 6.13 % RBCs
  % RBCs with HbF [15; 20[ pg: 9.77 % RBCs
  % RBCs with HbF ≥20 pg: 27.57 % RBCs
HbF; patient 24, D15-M1
  % RBCs with HbF [0; 2[ pg: 53.17 % RBCs
  % RBCs with HbF [2; 4[ pg: 11.57 % RBCs
  % RBCs with HbF [4; 6[ pg: 6.69 % RBCs
  % RBCs with HbF [6; 8[ pg: 5.58 % RBCs
  % RBCs with HbF [8; 10[ pg: 4.50 % RBCs
  % RBCs with HbF [10; 15[ pg: 3.89 % RBCs
  % RBCs with HbF [15; 20[ pg: 7.56 % RBCs
  % RBCs with HbF ≥20 pg: 7.04 % RBCs
HbF; patient 24, M3-M4
  % RBCs with HbF [0; 2[ pg: 44.56 % RBCs
  % RBCs with HbF [2; 4[ pg: 24.93 % RBCs
  % RBCs with HbF [4; 6[ pg: 12.53 % RBCs
  % RBCs with HbF [6; 8[ pg: 5.81 % RBCs
  % RBCs with HbF [8; 10[ pg: 3.09 % RBCs
  % RBCs with HbF [10; 15[ pg: 1.87 % RBCs
  % RBCs with HbF [15; 20[ pg: 3.81 % RBCs
  % RBCs with HbF ≥20 pg: 3.41 % RBCs
HbF; patient 24, at 6 months of treatment
  RBCs >6 pg HbF: 24%
HbF; patient 24, at M6
  decrease of red blood cells with HbF content of less than 2 pg: approximately 40%
HbF; patient 24, ≥M6
  % RBCs with HbF [0; 2[ pg: 36.98 % RBCs
  % RBCs with HbF [2; 4[ pg: 25.28 % RBCs
  % RBCs with HbF [4; 6[ pg: 13.64 % RBCs
  % RBCs with HbF [6; 8[ pg: 6.92 % RBCs
  % RBCs with HbF [8; 10[ pg: 3.93 % RBCs
  % RBCs with HbF [10; 15[ pg: 2.70 % RBCs
  % RBCs with HbF [15; 20[ pg: 5.36 % RBCs
  % RBCs with HbF ≥20 pg: 5.20 % RBCs
HbF; starting from M2
  patients in whom HbF distribution becomes homogeneous: 1 patient
[1]; [2]
  Hemoglobin: 9.35 g/dL
  MCHC: 34.40 g/dL
  MCHCo: 33.80 pg
  MCV: 100.50 femtoliter
[1]; after 6 months of treatment
  change in mean corpuscular hemoglobin concentration (MCHC): no significant variation
  change in mean corpuscular volume (MCV): significant increase
  change in mean hemoglobin content per red blood cell (MCHCo): significant increase
[1]; after 6 months of treatment, decrease not significant
  change in percentage of dense red blood cells: tendency to decrease
[1]; patient 11
  ASAT, relative difference in % D 0 vs M 6: −52% and −52.7%
  HbF, relative difference in % D 0 vs M 6: +14.5%
  LDH, relative difference in % D 0 vs M 6: −57% and −57.7%
  RETIC, relative difference in % D 0 vs M 6: −77% and −77.1%
[1]; patient 11, M 6
  ASAT (aspartate transaminase): 26 IU/l
  HbF: 7.1 g/dL
  LDH (lactate dehydrogenase): 383 IU/l
  MCHCo: 38.9 pg
[1]; patient 24
  ASAT, relative difference in % D 0 vs M 6: −9.4%
  HbF, relative difference in % D 0 vs M 6: +14.5%
  LDH, relative difference in % D 0 vs M 6: −40.5%
  RETIC, relative difference in % D 0 vs M 6: −57% and −57.2%
[1]; patient 24, M 6
  ASAT (aspartate transaminase): 29 IU/l
  HbF: 8.7 g/dL
  LDH (lactate dehydrogenase): 303 IU/l
  MCHCo: 42 pg
